ChEMBL document CHEMBL1201862, “PubChem BioAssay data set” (2004)
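Cells were grown in 96-well plates and exposed to each compound for 48 hours at five concentrations; endpoints were interpolated linearly between bracketing concentrations, or set to the highest concentration if not reached. GI50 is the concentration that inhibits growth by half.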 Activity calls are given as the source filed them. Rule as the data show it: active = GI50 up to about 1.1 µM and inactive = higher.

How the values were obtained:
Test in all cases: inhibition of tumour cell growth, NCI panel, 48 h
A498 = test system: A498
A549 = test system: A549
DLD-1 = test system: DLD-1
EKVX = test system: EKVX
HT-29 = test system: HT-29
IGROV-1 = test system: IGROV-1
KM12 = test system: KM12
LOX IMVI = test system: LOX IMVI
NCI-H23 = test system: NCI-H23
NCI-H522 = test system: NCI-H522
OVCAR-4 = test system: OVCAR-4
OVCAR-8 = test system: OVCAR-8
SF-295 = test system: SF-295
SK-MEL-5 = test system: SK-MEL-5
SK-OV-3 = test system: SK-OV-3
TK-10 = test system: TK-10
RXF 393 = test system: RXF 393
Hs-578T = test system: Hs-578T
MDA-MB-435 = test system: MDA-MB-435
MDA-N = test system: MDA-N

Row | SMILES | GI50 (A498) | GI50 (A549) | GI50 (DLD-1) | GI50 (EKVX) | GI50 (HT-29) | GI50 (IGROV-1) | GI50 (KM12) | GI50 (LOX IMVI) | GI50 (NCI-H23) | GI50 (NCI-H522) | GI50 (OVCAR-4) | GI50 (OVCAR-8) | GI50 (SF-295) | GI50 (SK-MEL-5) | GI50 (SK-OV-3) | GI50 (TK-10) | GI50 (RXF 393) | GI50 (Hs-578T) | GI50 (MDA-MB-435) | GI50 (MDA-N)
1 | NC(=O)c1csc(C2OC(COP(=O)(O)CP(=O)(O)OCC3OC(n4cnc5c(N)ncnc54)C(O)C3O)C(O)C2O)n1 (configuration not stated) | > 100 µM (inactive) | > 100 µM (inactive) | > 100 µM (inactive) | > 100 µM (inactive) | 87.7 µM (inactive) | > 100 µM (inactive) | > 100 µM (inactive) | 97.1 µM (inactive) | > 100 µM (inactive) | 68.1 µM (inactive) | > 100 µM (inactive) | > 100 µM (inactive) | 53.7 µM (inactive) | > 100 µM (inactive) | > 100 µM (inactive) | > 100 µM (inactive) |  |  |  | 
2 | CC(C)(C)C(=O)Cc1cc2c(cc1C(=O)O)S(=O)(=O)NC(C(C)(C)C)=C2 | > 100 µM (inactive) | > 100 µM (inactive) | > 100 µM (inactive) | > 100 µM (inactive) | > 100 µM (inactive) |  | > 100 µM (inactive) |  | > 100 µM (inactive) | > 100 µM (inactive) | > 100 µM (inactive) | > 100 µM (inactive) | > 100 µM (inactive) |  | > 100 µM (inactive) | > 100 µM (inactive) |  |  |  | 
3 | COc1ccc(C2S/C(=C\c3cc(OC)c(OC)c(OC)c3)C(=O)N2NC(=O)Cc2ccccc2)cc1 (configuration not stated) |  | > 100 µM (inactive) | 94.2 µM (inactive) |  | > 100 µM (inactive) | > 100 µM (inactive) | > 100 µM (inactive) | > 100 µM (inactive) | > 100 µM (inactive) | > 100 µM (inactive) | > 100 µM (inactive) | > 100 µM (inactive) | > 100 µM (inactive) | 22.1 µM (inactive) | > 100 µM (inactive) | > 100 µM (inactive) | > 100 µM (inactive) |  |  | 
4 | O=c1[nH]c2cccccc-2c1-c1nc2ccccc2[nH]1 |  | 25 µM (inactive) | 32.4 µM (inactive) | 40.8 µM (inactive) | 52.2 µM (inactive) | 32.7 µM (inactive) | 4.82 µM (inactive) | 14.9 µM (inactive) | 31.3 µM (inactive) | 19.3 µM (inactive) | 20.6 µM (inactive) | 26.5 µM (inactive) | 30.5 µM (inactive) | 18.7 µM (inactive) | 20.1 µM (inactive) | 92.7 µM (inactive) | 20.9 µM (inactive) |  |  | 
5 | CCOC(=O)c1cc2c(cn1)[nH]c1cccc(N)c12 |  | > 100 µM (inactive) | > 100 µM (inactive) |  | > 100 µM (inactive) | > 100 µM (inactive) | > 100 µM (inactive) | > 100 µM (inactive) | > 100 µM (inactive) | > 100 µM (inactive) | > 100 µM (inactive) | > 100 µM (inactive) | > 100 µM (inactive) | > 100 µM (inactive) |  | > 100 µM (inactive) | > 100 µM (inactive) |  |  | 
6 | COc1cc(/C=C\c2ccc(OC(C)=O)cc2)cc(OC)c1OC | 22.4 µM (inactive) | 6.62 µM (inactive) | 3.99 µM (inactive) | 10 µM (inactive) | 10.8 µM (inactive) | 7.59 µM (inactive) | 2.21 µM (inactive) |  | 0.352 µM (active) | 2.92 µM (inactive) | 19.1 µM (inactive) | 4.03 µM (inactive) |  |  | > 100 µM (inactive) |  |  |  |  | 
7 | COC1CC(OC)C2OC(c3ccccc3)OCC2O1 (configuration not stated) |  | > 100 µM (inactive) | > 100 µM (inactive) | > 100 µM (inactive) | > 100 µM (inactive) | > 100 µM (inactive) | > 100 µM (inactive) | > 100 µM (inactive) | > 100 µM (inactive) | > 100 µM (inactive) |  | > 100 µM (inactive) | > 100 µM (inactive) | > 100 µM (inactive) | > 100 µM (inactive) | > 100 µM (inactive) | > 100 µM (inactive) |  |  | 
8 | Cn1ncc2cc3c(Nc4ccc(Cl)cc4)cccc3nc21 |  | 18.2 µM (inactive) | 20.3 µM (inactive) | 18.1 µM (inactive) |  | 15.3 µM (inactive) | 17.3 µM (inactive) | 14.9 µM (inactive) | 22.2 µM (inactive) | 1.75 µM (inactive) | 11.8 µM (inactive) | 19 µM (inactive) | 14.2 µM (inactive) | 13.1 µM (inactive) | 61.2 µM (inactive) | 26.9 µM (inactive) | 6.87 µM (inactive) |  |  | 
9 | Cc1cccc2c(O)cc(=O)oc12 | > 100 µM (inactive) | > 100 µM (inactive) | > 100 µM (inactive) | > 100 µM (inactive) | > 100 µM (inactive) | > 100 µM (inactive) | > 100 µM (inactive) | > 100 µM (inactive) | > 100 µM (inactive) |  | > 100 µM (inactive) | > 100 µM (inactive) | > 100 µM (inactive) |  | > 100 µM (inactive) | > 100 µM (inactive) | > 100 µM (inactive) |  |  | 
10 | Cc1ccc(NC(=O)CCC(=O)C2CC(=O)CC/C2=N\NC(=O)c2cc3ccccc3cc2O)cc1C (configuration not stated) | 38.4 µM (inactive) | 25.1 µM (inactive) | 30.5 µM (inactive) | 29 µM (inactive) | 38.5 µM (inactive) | 15.5 µM (inactive) | 31.8 µM (inactive) |  | 15.7 µM (inactive) | 16.6 µM (inactive) | 16.4 µM (inactive) | 24.7 µM (inactive) | 32.1 µM (inactive) | 14.5 µM (inactive) | 67.9 µM (inactive) | 51.9 µM (inactive) |  |  |  | 
11 | O=C(O)C12C=CC(C1)c1ccccc12 (configuration not stated) | > 100 µM (inactive) | > 100 µM (inactive) | > 100 µM (inactive) |  | > 100 µM (inactive) | > 100 µM (inactive) |  | > 100 µM (inactive) | > 100 µM (inactive) |  | > 100 µM (inactive) | > 100 µM (inactive) | > 100 µM (inactive) | > 100 µM (inactive) | > 100 µM (inactive) | > 100 µM (inactive) |  |  |  | 
12 | OCCCCn1cc(Cn2ncc3c(O)ncnc32)nn1 | > 100 µM (inactive) | > 100 µM (inactive) |  | > 100 µM (inactive) | > 100 µM (inactive) | > 100 µM (inactive) | > 100 µM (inactive) | > 100 µM (inactive) | > 100 µM (inactive) | > 100 µM (inactive) | > 100 µM (inactive) | > 100 µM (inactive) | > 100 µM (inactive) | > 100 µM (inactive) | > 100 µM (inactive) | > 100 µM (inactive) | > 100 µM (inactive) | > 100 µM (inactive) | > 100 µM (inactive) | > 100 µM (inactive)
13 | COC(=O)C1C2CC3C1C3C2C(=O)OC (configuration not stated) | > 100 µM (inactive) | > 100 µM (inactive) |  | > 100 µM (inactive) | > 100 µM (inactive) | > 100 µM (inactive) | > 100 µM (inactive) | > 100 µM (inactive) | > 100 µM (inactive) | > 100 µM (inactive) | > 100 µM (inactive) | > 100 µM (inactive) | > 100 µM (inactive) | > 100 µM (inactive) | > 100 µM (inactive) | > 100 µM (inactive) | > 100 µM (inactive) | > 100 µM (inactive) | > 100 µM (inactive) | > 100 µM (inactive)
